US12331027B2, “Herbicidal pyridylethers” (BASF SE, priority 2017, dated 2025)

How the values were obtained:
Test in all cases: greenhouse post-emergence herbicidal test
Assay type in all cases: in vivo
SETVI (Setaria viridis) = settings: scale from 0 to 100; for herbicidal activity against SETVI: post-emergence method, application rate 16 g/ha; for damages SETVI: post emergence control 7 days after treatment (greenhouse)
Description: (§1) The seeds of the test plants were sown separately for each species. For the post-emergence treatment, the test plants were first grown to a height of 3 to 15 cm, depending on the plant habit, and only then treated with the active ingredients which had been suspended or emulsified in water. For this purpose, the test plants were either sown directly and grown in the same containers, or they were first grown separately as seedlings and transplanted into the test containers a few days prior to treatment. Depending on the species, the plants were kept at 10-25° C. or 20-35° C., respectively. The test period extended over 2 to 4 weeks. During this time, the plants were tended, and their response to the individual treatments was evaluated. Evaluation was carried out using a scale from 0 to 100. 100 means no emergence of the plants, or complete destruction of at least the aerial moieties, and 0 means no damage, or normal course of growth. A good herbicidal activity is given at values of at least 70 and a very good herbicidal activity is given at values of at least 85. [table]

[1] = test system: AMARE (Amaranthus retroflexus); settings: post-emergence method, application rate 16 g/ha, scale from 0 to 100; for pest or weed control at 16 g/ha: Amaranthus retroflexus, read-out: herbicidal activity against AMARE
Description: as §1

[2] = test system: ECHCG (Echinocloa crus-galli); settings: post-emergence method, application rate 16 g/ha, scale from 0 to 100
Description: as §1

[3] = test system: POLCO (Polygonum convolvulus); settings: post-emergence method, application rate 16 g/ha, scale from 0 to 100
Description: as §1

[4] = test system: CHEAL (Chenopodium album); settings: post-emergence method, application rate 16 g/ha, scale from 0 to 100
Description: as §1

[5] = test system: ALOMY (Alopecurus myosuroides); settings: post emergence control 7 days after treatment (greenhouse), scale from 0 to 100
Description: as §1

AVEFA (Avena fatua) = settings: post emergence control 7 days after treatment (greenhouse), scale from 0 to 100
Description: as §1

Compound	herbicidal activity against SETVI (SETVI (Setaria viridis))	pest or weed control at 16 g/ha [1] [%]	herbicidal activity against CHEAL [4]	also measured
CCOC(=O)COc1ccccc1Oc1nc(-n2nc(C(F)(F)F)n(C)c2=O)c(F)cc1C#N [Example 2, Ethyl 2-[2-[[3-cyano-5-fluoro-6-[4-methyl-5-oxo-3-(trifluoromethyl)-1,2,4-triazol-1-yl]-2-pyridyl]oxy]phenoxy]acetate]	very good (a very good herbicidal activity is given at values of at least 85)	≥ 85	–	herbicidal activity against ECHCG [2]: very good (a very good herbicidal activity is given at values of at least 85)
CCOC(=O)COc1ccccc1Oc1nc(-n2nc3n(c2=O)CCCC3)c(Cl)cc1Cl [Example 4, Ethyl 2-[2-[[3,5-dichloro-6-(3-oxo-5,6,7,8-tetrahydro-[1,2,4]triazolo[4,3-a]pyridin-2-yl)-2-pyridyl]oxy]phenoxy]acetate]	–	≥ 70	–	–
CCOC(=O)COc1ncccc1Oc1nc(-n2nc(C)n(C(F)F)c2=O)ccc1Cl [Example 16]	–	–	very good (a very good herbicidal activity is given at values of at least 85)	herbicidal activity against POLCO [3]: very good (a very good herbicidal activity is given at values of at least 85); herbicidal activity against AMARE [1]: very good (a very good herbicidal activity is given at values of at least 85)
CCOC(=O)COc1ccccc1Oc1nc(-n2nc(C(F)(F)F)n(C)c2=O)c(F)cc1C(N)=S [Example 3, Ethyl 2-[2-[[3-carbamothioyl-5-fluoro-6-[4-methyl-5-oxo-3-(trifluoromethyl)-1,2,4-triazol-1-yl]-2-pyridyl]oxy]phenoxy]acetate]	–	≥ 70	–	–
COC(=O)COc1ccc(Oc2nc(-n3ncc(C(F)(F)F)c(C)c3=O)c(F)cc2Cl)cc1 [example 28]	–	–	–	damages ALOMY ([5]; application rate 2 g/ha): 70; damages ALOMY ([5]; application rate 4 g/ha): 75; damages SETVI (SETVI (Setaria viridis); application rate 2 g/ha): 90; damages SETVI (SETVI (Setaria viridis); application rate 4 g/ha): 95; damages AVEFA (AVEFA (Avena fatua); application rate 8 g/ha): 80; damages AVEFA (AVEFA (Avena fatua); application rate 16 g/ha): 98
CCOC(=O)COc1ccccc1Oc1nc(-n2nc(C)n(C(F)F)c2=O)c(F)cc1F [Example 9]	good (A good herbicidal activity is given at values of at least 70)	–	good (A good herbicidal activity is given at values of at least 70)	herbicidal activity against ECHCG [2]: good (A good herbicidal activity is given at values of at least 70)
CCOC(=O)COc1ncccc1Oc1nc(-n2ncc(C(F)(F)F)c(C)c2=O)c(F)cc1Cl [Example 8, Ethyl 2-[[3-[[3-chloro-5-fluoro-6-[5-methyl-6-oxo-4-(trifluoromethyl)pyridazin-1-yl]-2-pyridyl]oxy]-2-pyridyl]oxy]acetate]	–	≥ 85	–	–
CCOC(=O)COc1ccccc1Oc1nc(N2C(=O)OC(=C(C)C)C2=O)c(F)cc1Cl [Example 26, Ethyl 2-[2-[[3-chloro-5-fluoro-6-(5-isopropylidene-2,4-dioxo-oxazolidin-3-yl)-2-pyridyl]oxy]phenoxy]acetate]	very good (a very good herbicidal activity is given at values of at least 85)	≥ 85	very good (a very good herbicidal activity is given at values of at least 85)	herbicidal activity against POLCO [3]: very good (a very good herbicidal activity is given at values of at least 85)
CCOC(=O)COc1ncccc1Oc1nc(-n2c(=O)n(C)c(=O)n(C)c2=O)c(F)cc1Cl [Example 7, Ethyl 2-[[3-[[3-chloro-6-(3,5-dimethyl-2,4,6-trioxo-1,3,5-triazinan-1-yl)-5-fluoro-2-pyridyl]oxy]-2-pyridyl]oxy]acetate]	–	≥ 70	–	–
CCOC(=O)COc1ncccc1Oc1nc(-n2nc(C)n(C(F)F)c2=O)c(F)cc1F [Example 14]	very good (a very good herbicidal activity is given at values of at least 85)	–	–	–
CCOC(=O)COc1ccccc1Oc1nc(-n2nc(C)n(C(F)F)c2=O)c(F)cc1Cl [Example 1, Ethyl 2-[2-[[3-chloro-6-[4-(difluoromethyl)-3-methyl-5-oxo-1,2,4-triazol-1-yl]-5-fluoro-2-pyridyl]oxy]phenoxy]acetate]	–	≥ 85	–	–
CCOC(=O)COc1ccccc1Oc1nc(N2C(=O)C3=C(CCCC3)C2=O)c(F)cc1Cl [Example 27, ethyl 2-[2-[[3-chloro-6-(1,3-dioxo-4,5,6,7-tetrahydroisoindol-2-yl)-5-fluoro-2-pyridyl]oxy]phenoxy]acetate]	very good (a very good herbicidal activity is given at values of at least 85)	≥ 85	very good (a very good herbicidal activity is given at values of at least 85)	herbicidal activity against POLCO [3]: very good (a very good herbicidal activity is given at values of at least 85); herbicidal activity against ECHCG [2]: very good (a very good herbicidal activity is given at values of at least 85)
COC(=O)COc1ccc(Oc2cc(-n3ncc(C(F)(F)F)c(C)c3=O)c(F)cc2Cl)cc1 [Example A2-11, reference compound]	–	–	–	damages ALOMY ([5]; application rate 2 g/ha): 60; damages ALOMY ([5]; application rate 4 g/ha): 65; damages SETVI (SETVI (Setaria viridis); application rate 2 g/ha): 80; damages SETVI (SETVI (Setaria viridis); application rate 4 g/ha): 85; damages AVEFA (AVEFA (Avena fatua); application rate 8 g/ha): 70; damages AVEFA (AVEFA (Avena fatua); application rate 16 g/ha): 80
CCOC(=O)COc1ccccc1Oc1nc(-n2nc(C(C)(C)C)oc2=O)c(Cl)cc1Cl [Example 5, Ethyl 2-[2-[[6-(5-tert-butyl-2-oxo-1,3,4-oxadiazol-3-yl)-3,5-dichloro-2-pyridyl]oxy]phenoxy]acetate]	–	≥ 85	very good (a very good herbicidal activity is given at values of at least 85)	–
CCOC(=O)COc1ccccc1Oc1nc(-c2nn(C)c(OC(F)F)c2Cl)c(F)cc1Cl [Example 6, Ethyl 2-[2-[[3-chloro-6-[4-chloro-5-(difluoromethoxy)-1-methyl-pyrazol-3-yl]-5-fluoro-2-pyridyl]oxy]phenoxy]acetate]	–	≥ 85	–	–
CCOC(=O)COc1ccccc1Oc1nc(-n2nc(C(F)(F)F)n(C)c2=S)c(F)cc1C#N [Example 18]	good (A good herbicidal activity is given at values of at least 70)	–	–	herbicidal activity against AMARE [1]: very good (a very good herbicidal activity is given at values of at least 85)
